Reference: publication PMC6151429 (Molecules : A Journal of Synthetic Chemistry and Natural …, 2017)
Several values for one entry are separate records, joined by “and”; a condition that tells them apart may be missing. Equal values may be shown once. Read-outs that look alike come from different tables or passages of the source.

Tests used:
[1] = biological target: T1, Electric eel acetylcholinesterase (AChE) (Electrophorus electricus, UniProt O42275); test: biochemical; settings: for IC50: electric eel AChE, mean ± SEM of triplicate experiments; for SI, selective index (BChE/AChE): calculated from IC50 of BChE/AChE
T1 construct: purchased Sigma-Aldrich Co. (St. Louis, MO, USA)
T1 sequence (O42275 24-633): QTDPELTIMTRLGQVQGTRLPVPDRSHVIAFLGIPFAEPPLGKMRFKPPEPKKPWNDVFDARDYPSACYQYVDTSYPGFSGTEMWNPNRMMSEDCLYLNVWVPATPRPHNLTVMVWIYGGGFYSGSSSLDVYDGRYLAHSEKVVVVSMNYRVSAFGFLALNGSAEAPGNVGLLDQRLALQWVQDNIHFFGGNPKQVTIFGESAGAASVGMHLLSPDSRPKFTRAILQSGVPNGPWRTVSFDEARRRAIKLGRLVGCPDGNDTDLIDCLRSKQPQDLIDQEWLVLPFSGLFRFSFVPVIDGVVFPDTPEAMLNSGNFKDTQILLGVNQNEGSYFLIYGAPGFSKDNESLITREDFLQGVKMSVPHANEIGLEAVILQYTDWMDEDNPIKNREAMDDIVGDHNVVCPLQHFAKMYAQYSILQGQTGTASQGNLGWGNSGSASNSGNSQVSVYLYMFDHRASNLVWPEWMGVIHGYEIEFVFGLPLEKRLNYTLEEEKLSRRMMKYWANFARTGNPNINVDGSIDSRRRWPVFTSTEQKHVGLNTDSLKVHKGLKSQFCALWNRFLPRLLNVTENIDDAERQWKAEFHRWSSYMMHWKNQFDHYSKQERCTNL
Description: (§1) Electric eel acetylcholinesterase (AChE, EC3.1.1.7), horse serum butyrylcholinesterase (BChE, EC 3.1.1.8), acetylthiocholine iodide (ACh), butyrylthioline chloride (BCh), 5,5′-dithobis [2-nitrobenzoic acid] […] The BACE1 FREF assay kit (β-secretase) was purchased from Pan Vera Co. (Madison, WI, USA). ONOO^− was purchased from Molecular Probes Cayman (Ann Arbor, MI, USA). All other chemicals and solvents used were purchased from E. Merck, Fluka, or Sigma- Aldrich, unless otherwise stated.
The inhibitory activity of the isolated coumarins toward ChE was measured using the spectrophotometric method developed by Ellman et al.. ACh and BCh were used as substrates to assay the inhibition of AChE and BChE, respectively. Each reaction mixture consisted of 140 µL sodium phosphate buffer (pH 8.0), 20 µL of test sample solution, and 20 µL of either AChE or BChE solution, which were then combined and incubated for 15 min at room temperature. […] Reactions were initiated upon addition of 10 µL of DTNB and 10 µL of either ACh or BCh. Enzymatic hydrolysis, mediated by AChE or BChE, was monitored according to the formation of yellow 5-thio-2-nitrobenzoate anions at 412 nm for 15 min, which were generated by the reaction of DTNB with thiocholine released from ACh or BCh. All reactions were performed in 96-well plates in triplicate, and recorded using a microplate spectrophotometer (Molecular Devices, Sunnyvale, CA, USA).

human recombinant BACE1 [2] = biological target: T2, human recombinant BACE1 (Homo sapiens, UniProt P56817); test: In vitro BACE1 FRET enzyme assay; format: biochemical
T2 construct: purchased PanVera Co. (Madison, WI, USA)
T2 sequence (P56817 46-501): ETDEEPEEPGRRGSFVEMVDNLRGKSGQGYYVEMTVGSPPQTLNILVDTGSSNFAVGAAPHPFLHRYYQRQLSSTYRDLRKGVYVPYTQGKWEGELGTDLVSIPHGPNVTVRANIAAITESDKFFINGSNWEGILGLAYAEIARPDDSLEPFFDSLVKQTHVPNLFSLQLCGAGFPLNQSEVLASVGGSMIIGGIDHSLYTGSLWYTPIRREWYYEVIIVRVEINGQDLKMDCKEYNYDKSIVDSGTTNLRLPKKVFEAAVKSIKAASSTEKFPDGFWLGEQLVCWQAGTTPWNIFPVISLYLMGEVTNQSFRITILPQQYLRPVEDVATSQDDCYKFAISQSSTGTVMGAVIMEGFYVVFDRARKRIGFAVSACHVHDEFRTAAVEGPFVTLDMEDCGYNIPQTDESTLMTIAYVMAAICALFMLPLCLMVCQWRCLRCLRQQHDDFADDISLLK
Method: A BACE1 fluorescence resonance energy transfer (FRET) assay kit (β-secretase, human recombinant) was purchased from PanVera Co. (Madison, WI, USA). The assay was carried out according to the provided manual with slight modifications, as described in a previous study.

[3] = biological target: T3, horse serum butyrylcholinesterase (BChE) (Equus caballus, UniProt P81908); test: In vitro ChE enzyme assay (Ellman), BChE; format: biochemical; settings: mean ± SEM of triplicate experiments
T3 construct: horse serum butyrylcholinesterase (BChE, EC 3.1.1.8); purchased Sigma-Aldrich Co. (St. Louis, MO, USA); host or cells: horse serum
T3 sequence (P81908 whole entry): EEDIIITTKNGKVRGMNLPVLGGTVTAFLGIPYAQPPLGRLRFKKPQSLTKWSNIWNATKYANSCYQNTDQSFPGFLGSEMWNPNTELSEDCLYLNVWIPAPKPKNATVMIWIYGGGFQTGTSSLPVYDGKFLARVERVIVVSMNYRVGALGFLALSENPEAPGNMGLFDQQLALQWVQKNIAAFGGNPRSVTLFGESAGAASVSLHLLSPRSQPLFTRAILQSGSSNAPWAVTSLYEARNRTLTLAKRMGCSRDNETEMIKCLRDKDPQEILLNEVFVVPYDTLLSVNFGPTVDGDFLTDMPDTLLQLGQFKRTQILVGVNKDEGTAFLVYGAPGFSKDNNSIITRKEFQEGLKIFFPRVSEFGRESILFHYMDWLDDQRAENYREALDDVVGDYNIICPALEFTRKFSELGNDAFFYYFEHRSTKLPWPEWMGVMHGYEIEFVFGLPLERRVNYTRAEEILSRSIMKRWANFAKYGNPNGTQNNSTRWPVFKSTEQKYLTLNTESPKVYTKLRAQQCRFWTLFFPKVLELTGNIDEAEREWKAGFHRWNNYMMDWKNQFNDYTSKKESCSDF
Description: as §1
The inhibitory activity of the isolated coumarins toward ChE was measured using the spectrophotometric method developed by Ellman et al.. ACh and BCh were used as substrates to assay the inhibition of AChE and BChE, respectively. Each reaction mixture consisted of 140 µL sodium phosphate buffer (pH 8.0), 20 µL of test sample solution, and 20 µL of either AChE or BChE solution, which were then combined and incubated for 15 min at room temperature. […] Enzymatic hydrolysis, mediated by AChE or BChE, was monitored according to the formation of yellow 5-thio-2-nitrobenzoate anions at 412 nm for 15 min, which were generated by the reaction of DTNB with thiocholine released from ACh or BCh. All reactions were performed in 96-well plates in triplicate, and recorded using a microplate spectrophotometer (Molecular Devices, Sunnyvale, CA, USA).

human recombinant BACE1 [4] = biological target: T2, human recombinant BACE1; test: Kinetics of BACE1 inhibition (Lineweaver–Burk and Dixon plots); format: biochemical; settings: for BACE1 inhibition type: determined using Dixon and Lineweaver–Burk plots; for Ki: determined using a Dixon plot, substrate 750, 375, 250 nM, read-out: BACE1 inhibition constant (Ki)
Method: Complementary kinetic methods were employed: Lineweaver–Burk and Dixon plots. The mechanism of BACE1 inhibition was evaluated by monitoring the effects of different concentrations of substrate (750, 375, and 250 nM). The test concentrations of 2 in BACE1 inhibition kinetic experiments were 0, 0.4, 2.0, and 10 µM, while those for 3 were 0, 25, 50, and 100 µM. Inhibition constants (Ki) were determined by interpreting the Dixon plot, where the value on the x-axis represents Ki.

[5] = tested on: ONOO−-mediated tyrosine nitration of BSA; test: Inhibition of ONOO−-mediated protein tyrosine nitration (Western blot, 3-nitrotyrosine antibody); format: biochemical; settings: pretreatment at 12.5–100 μM
Method: To determine the inhibitory effect of 2 against ONOO^−-induced tyrosine nitration, Western blot analysis was performed using a 3-nitrotyrosine antibody.
Figure 5 Effect of 2 on nitration of BSA by ONOO^−. A mixture of the compound and BSA was incubated at 25 °C for 10 min. After incubation of ONOO^− at 25 °C for 10 min, reactants were resolved by electrophoresis in a 10% SDS-polyacrylamide gel.
We evaluated ONOO^−-mediated protein tyrosine nitration using the method of Ali et al., with slight modifications. The tested concentration range of 2 was 12.5–100 µM.

[6] = human recombinant BACE1, mean ± SEM of triplicate experiments, read-out: IC50 BACE1

Compound | IC50 ([1]; IC50 AChE) [µM] | IC50 (human recombinant BACE1 [2]) [µM] | SI, selective index (BChE/AChE) [1] | IC50 ([1]; read-out: IC50 AChE) | IC50 [3] | IC50 (human recombinant BACE1 [2]; [6]) [µM] | BACE1 inhibition type (human recombinant BACE1 [4]) | Ki (human recombinant BACE1 [4]) [µM] | Inhibition of ONOO−-mediated tyrosine nitration [5]
COc1ccc2cc3[n+](cc2c1OC)CCc1cc2c(cc1-3)OCO2 [Berberine, berberine, reference compound] | < 0.32 |  |  |  |  |  |  |  | 
O=c1ccc2ccc(O)cc2o1 [Compound 1, umbelliferone] |  | 169 ± 2.17 |  |  |  |  |  |  | 
O=Cc1cc2ccc(=O)oc2cc1O [Compound 2, 6-formyl umbelliferone] |  |  | 1.67 | 16.7 to 19.1 µM and 16.7 µM | 27.9 to 87.7 µM and 27.9 µM | 1.31 ± 0.01 | noncompetitive-type inhibition | 2.27 | significant dose-dependent inhibition
O=Cc1c(O)ccc2ccc(=O)oc12 [Compound 3, 8-formyl umbelliferone] |  |  | 4.58 | 16.7 to 19.1 µM and 19.1 µM | 27.9 to 87.7 µM and 87.7 µM | 39.82 ± 0.31 | noncompetitive-type inhibition | 22.2 | 
